Columns and labels:
Type in all cases: biochemical
TRKA kinase = TRKA kinase (Homo sapiens (Human), UniProt P04629); experiment: Assay of small molecular compounds for inhibiting the activity of TRKA kinase (LANCE TR-FRET)
Procedure, shortened: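 TRKA (supplied as 2 nM 2× solution) was pre-reacted with compounds for 5 min at room temperature before a 4× ULight-TK peptide/ATP mix (400 nM/40 μM) started the 60-min dark reaction at 1% DMSO. After stop and 60-min detection, TR-FRET was read.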

VEGFR-2 kinase = VEGFR-2 kinase (Homo sapiens (Human), UniProt P35968); experiment: Assay of small molecular compounds for inhibiting the activity of VEGFR-2 kinase (LANCE TR-FRET); conditions: read-out: VEGFR2 IC50
Chain of VEGFR-2 kinase (P35968 20-1356): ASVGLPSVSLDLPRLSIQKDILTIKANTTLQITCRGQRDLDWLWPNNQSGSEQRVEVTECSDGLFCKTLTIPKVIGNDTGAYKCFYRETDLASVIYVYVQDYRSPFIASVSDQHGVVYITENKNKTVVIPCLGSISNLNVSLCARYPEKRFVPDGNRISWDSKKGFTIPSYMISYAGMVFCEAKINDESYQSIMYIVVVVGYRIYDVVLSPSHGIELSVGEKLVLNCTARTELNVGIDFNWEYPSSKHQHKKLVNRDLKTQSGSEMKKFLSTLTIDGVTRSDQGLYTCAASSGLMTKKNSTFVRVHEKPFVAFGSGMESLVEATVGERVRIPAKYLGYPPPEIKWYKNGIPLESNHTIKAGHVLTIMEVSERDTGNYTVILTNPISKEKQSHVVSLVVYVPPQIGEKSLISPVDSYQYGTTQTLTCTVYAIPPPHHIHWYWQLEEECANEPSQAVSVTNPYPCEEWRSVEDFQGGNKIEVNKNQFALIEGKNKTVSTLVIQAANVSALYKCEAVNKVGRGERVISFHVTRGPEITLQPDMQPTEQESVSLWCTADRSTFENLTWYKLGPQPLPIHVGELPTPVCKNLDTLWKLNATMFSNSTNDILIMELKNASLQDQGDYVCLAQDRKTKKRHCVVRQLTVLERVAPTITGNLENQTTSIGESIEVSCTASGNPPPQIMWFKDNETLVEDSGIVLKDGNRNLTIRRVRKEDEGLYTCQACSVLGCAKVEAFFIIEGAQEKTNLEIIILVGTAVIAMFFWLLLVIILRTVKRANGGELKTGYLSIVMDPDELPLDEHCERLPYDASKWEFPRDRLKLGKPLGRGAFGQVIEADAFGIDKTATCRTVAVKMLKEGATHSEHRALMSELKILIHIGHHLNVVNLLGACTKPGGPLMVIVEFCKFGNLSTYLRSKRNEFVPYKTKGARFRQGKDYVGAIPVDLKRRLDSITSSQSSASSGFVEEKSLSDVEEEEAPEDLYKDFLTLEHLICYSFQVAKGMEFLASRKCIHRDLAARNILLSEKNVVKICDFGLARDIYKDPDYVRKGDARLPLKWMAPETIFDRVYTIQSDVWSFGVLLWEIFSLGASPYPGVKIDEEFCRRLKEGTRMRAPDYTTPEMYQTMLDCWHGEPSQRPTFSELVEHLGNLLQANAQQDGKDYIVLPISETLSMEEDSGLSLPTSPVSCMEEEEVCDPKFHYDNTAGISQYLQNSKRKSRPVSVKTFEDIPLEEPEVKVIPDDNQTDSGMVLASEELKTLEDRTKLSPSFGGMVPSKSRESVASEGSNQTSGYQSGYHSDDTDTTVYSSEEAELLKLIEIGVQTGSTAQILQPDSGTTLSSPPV
Procedure, shortened: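 LANCE TR-FRET with human VEGFR-2 (2× stock 0.5 nM) preincubated 30 min with compound (final 2500 to 0.042 nM, 11-point 3-fold), then ULight-JAK-1 (Tyr1023) peptide/ATP added (4× stocks 200 nM/40 μM). Reaction 60 min room temperature, 4% DMSO; IC50 from inhibition-rate curve.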

MER kinase = MER kinase (Homo sapiens (Human), UniProt Q12866); experiment: Assay of small molecular compounds for inhibiting the activity of MER kinase (LANCE TR-FRET)
Chain of MER kinase (Q12866 21-999): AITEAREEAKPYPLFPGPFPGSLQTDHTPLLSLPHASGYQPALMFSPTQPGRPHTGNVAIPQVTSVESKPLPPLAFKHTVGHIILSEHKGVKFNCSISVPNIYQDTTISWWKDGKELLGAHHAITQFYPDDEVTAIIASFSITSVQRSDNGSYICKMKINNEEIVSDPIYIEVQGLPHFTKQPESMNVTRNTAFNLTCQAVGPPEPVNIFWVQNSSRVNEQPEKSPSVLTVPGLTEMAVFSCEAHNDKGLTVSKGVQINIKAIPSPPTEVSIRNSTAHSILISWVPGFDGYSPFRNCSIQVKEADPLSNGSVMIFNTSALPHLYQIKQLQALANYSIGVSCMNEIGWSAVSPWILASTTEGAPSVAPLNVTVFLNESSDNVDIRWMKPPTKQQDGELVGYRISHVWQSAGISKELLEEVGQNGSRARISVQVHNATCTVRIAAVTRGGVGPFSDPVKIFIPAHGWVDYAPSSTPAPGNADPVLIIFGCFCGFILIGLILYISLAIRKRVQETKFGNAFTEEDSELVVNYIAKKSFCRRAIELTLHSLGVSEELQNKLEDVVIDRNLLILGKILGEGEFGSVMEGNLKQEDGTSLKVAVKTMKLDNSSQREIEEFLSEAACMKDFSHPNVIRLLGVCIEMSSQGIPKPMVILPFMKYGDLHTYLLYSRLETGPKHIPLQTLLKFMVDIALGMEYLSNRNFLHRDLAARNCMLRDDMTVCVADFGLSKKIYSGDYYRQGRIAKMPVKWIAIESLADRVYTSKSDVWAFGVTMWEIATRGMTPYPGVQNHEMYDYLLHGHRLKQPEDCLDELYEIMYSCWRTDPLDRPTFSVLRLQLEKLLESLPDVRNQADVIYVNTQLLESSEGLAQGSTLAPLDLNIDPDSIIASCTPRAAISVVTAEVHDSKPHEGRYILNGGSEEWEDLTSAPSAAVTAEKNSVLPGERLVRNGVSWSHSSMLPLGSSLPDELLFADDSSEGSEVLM
Procedure, shortened: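 LANCE TR-FRET readout of ULight-poly GT phosphorylation by MER kinase; compound final range 0.042-2500 nM, 3-fold steps, 5 min enzyme preincubation. Reaction 60 min at room temperature in the dark with substrate/ATP (4× at 200 nM/20 μM), 1% DMSO, then stopped and developed 60 min; IC50 by curve fit.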

Chain of TRKA kinase (P04629 33-796): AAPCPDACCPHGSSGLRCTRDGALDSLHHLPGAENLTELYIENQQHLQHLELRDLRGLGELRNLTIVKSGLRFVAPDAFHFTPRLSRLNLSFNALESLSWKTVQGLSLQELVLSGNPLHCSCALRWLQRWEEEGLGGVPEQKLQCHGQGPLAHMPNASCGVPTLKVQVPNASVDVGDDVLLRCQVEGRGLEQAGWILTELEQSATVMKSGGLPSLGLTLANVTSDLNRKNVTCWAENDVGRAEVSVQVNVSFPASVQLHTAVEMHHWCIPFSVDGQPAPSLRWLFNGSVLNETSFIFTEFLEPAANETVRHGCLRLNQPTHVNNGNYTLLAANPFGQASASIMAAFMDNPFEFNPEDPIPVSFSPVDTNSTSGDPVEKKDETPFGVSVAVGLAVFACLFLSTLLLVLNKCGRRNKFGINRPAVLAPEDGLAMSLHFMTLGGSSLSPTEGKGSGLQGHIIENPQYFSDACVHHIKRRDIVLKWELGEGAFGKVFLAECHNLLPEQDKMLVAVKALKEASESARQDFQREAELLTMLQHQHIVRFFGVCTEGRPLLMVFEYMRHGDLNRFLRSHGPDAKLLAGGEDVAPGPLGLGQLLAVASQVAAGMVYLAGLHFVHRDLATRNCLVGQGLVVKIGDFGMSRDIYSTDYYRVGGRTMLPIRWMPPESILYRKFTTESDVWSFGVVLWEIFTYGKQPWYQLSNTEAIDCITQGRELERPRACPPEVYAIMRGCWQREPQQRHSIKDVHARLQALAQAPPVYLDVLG

| Structure (SMILES) | IC50 (TRKA kinase) [nM] | IC50 (VEGFR-2 kinase) [nM] | IC50 (MER kinase) [nM] |
| --- | --- | --- | --- |
| COc1cc2ncnc(Oc3ccc(NC(=O)c4cccn(-c5ccc(F)cc5)c4=O)cc3F)c2c2c1OCCO2 [Example 1, N-(3-fluoro-4-((5-methoxy-2,3-dihydro-[1,4]dioxino[2,3-f]quinazolin-10-yl)oxy)phenyl)-1-(4-fluorophenyl)-2-oxo-1,2-dihydropyridine-3-carboxamide] | < 50 | ≤ 50 | ≤ 50 |
| COc1cc2ncnc(Oc3ccc(NC(=O)c4c(OC)ccn(-c5ccc(F)cc5)c4=O)cc3F)c2c2c1OCCO2 [Example 2, N-(3-fluoro-4-((5-methoxy-2,3-dihydro-[1,4]dioxino[2,3-f]quinazolin-10-yl)oxy)phenyl)-1-(4-fluorophenyl)-4-methoxy-2-oxo-1,2-dihydropyridine-3-carboxamide] | < 50 | 50 to 500 | ≤ 50 |
| CCOc1ccn(-c2ccc(F)cc2)c(=O)c1C(=O)Nc1ccc(Oc2ncnc3cc(OC)c4c(c23)OCCO4)c(F)c1 [Example 3, N-(3-fluoro-4-((5-methoxy-2,3-dihydro-[1,4]dioxino[2,3-f]quinazolin-10-yl)oxy)phenyl)-1-(4-fluorophenyl)-4-ethoxy-2-oxo-1,2-dihydropyridine-3-carboxamide] | < 50 | 50 to 500 | ≤ 50 |
| COc1cn(-c2ccc(F)cc2C)nc1C(=O)Nc1ccc(Oc2ncnc3cc(OCCCN4CCOCC4)c4c(c23)OCCO4)c(F)c1 [Example 11, 1-(4-fluoro-2-methylphenyl)-N-(3-fluoro-4-((5-(3-morpholinopropoxy)-2,3-dihydro-[1,4]dioxino[2,3-f]quinazolin-10-yl)oxy)phenyl)-4-methoxy-1H-pyrazole-3-carboxamide] |  | 50 to 500 | 50 to 500 |
| CCOc1cn(-c2ccc(F)cc2C)nc1C(=O)Nc1ccc(Oc2ncnc3cc(OCCCN4CCOCC4)c4c(c23)OCCO4)c(F)c1 [Example 12, 1-(4-fluoro-2-methylphenyl)-N-(3-fluoro-4-((5-(3-morpholinopropoxy)-2,3-dihydro-[1,4]dioxino[2,3-f]quinazolin-10-yl)oxy)phenyl)-4-ethoxy-1H-pyrazole-3-carboxamide] |  | 500 to 5000 | 50 to 500 |
| COCCOc1cc2nccc(Oc3ccc(NC(=O)c4cn(C(C)C)c(=O)n(-c5ccc(F)cc5)c4=O)cc3F)c2c2c1OCCO2 [Example 43, N-(3-fluoro-4-((5-(2-methoxyethoxy)-2,3-dihydro-[1,4]dioxino[2,3-f]quinolin-10-yl)oxy)phenyl)-3-(4-fluorophenyl)-1-isopropyl-2,4-dioxo-1,2,3,4-tetrahydropyrimidine-5-carboxamide] | 50 to 500 |  | ≤ 50 |
| CCn1cc(C(=O)Nc2ccc(Oc3ccnc4cc(OCCOC)c5c(c34)OCCO5)c(F)c2)c(=O)n(-c2ccc(F)cc2)c1=O [Example 44, N-(3-fluoro-4-((5-(2-methoxyethoxy)-2,3-dihydro-[1,4]dioxino[2,3-f]quinolin-10-yl)oxy)phenyl)-3-(4-fluorophenyl)-1-ethyl-2,4-dioxo-1,2,3,4-tetrahydropyrimidine-5-carboxamide] | < 50 | 50 to 500 | ≤ 50 |
| COc1cc2nccc(Oc3ccc(NC(=O)c4cn(CCO)c(=O)n(-c5ccc(F)cc5)c4=O)cc3F)c2c2c1OCCO2 [Example 45, N-(3-fluoro-4-((5-methoxy-2,3-dihydro-[1,4]dioxino[2,3-f]quinolin-10-yl)oxy)phenyl)-3-(4-fluorophenyl)-1-(2-hydroxyethyl)-2,4-dioxo-1,2,3,4-tetrahydropyrimidine-5-carboxamide] | 50 to 500 | 500 to 5000 | ≤ 50 |
| COCCn1cc(C(=O)Nc2ccc(Oc3ccnc4cc(OC)c5c(c34)OCCO5)c(F)c2)c(=O)n(-c2ccc(F)cc2)c1=O [Example 46, N-(3-fluoro-4-((5-methoxy-2,3-dihydro-[1,4]dioxino[2,3-f]quinolin-10-yl)oxy)phenyl)-3-(4-fluorophenyl)-1-(2-methoxyethyl)-2,4-dioxo-1,2,3,4-tetrahydropyrimidine-5-carboxamide] | 50 to 500 | 500 to 5000 | ≤ 50 |
| CCOc1ccn(-c2ccc(F)cc2)c(=O)c1C(=O)Nc1ccc(Oc2ccnc3cc(OCCCN4CCN(C)CC4)c4c(c23)OCCO4)c(F)c1 [Example 49, N-(3-fluoro-4-((5-(3-(4-methylpiperazin-1-yl)propoxy)-2,3-dihydro-[1,4]dioxino[2,3-f]quinolin-10-yl)oxy)phenyl)-1-(4-fluorophenyl)-4-ethoxy-2-oxo-1,2-dihydropyridine-3-carboxamide] | < 50 | ≤ 50 | ≤ 50 |
| CCOc1ccn(-c2ccc(F)cc2)c(=O)c1C(=O)Nc1ccc(Oc2ccnc3cc(OCCCN4CCN(C(C)=O)CC4)c4c(c23)OCCO4)c(F)c1 [Example 50, N-(4-((5-(3-(4-acetyl-piperazin-1-yl)propoxy)-2,3-dihydro-[1,4]dioxino[2,3-f]quinolin-10-yl)oxy)-3-fluorophenyl)-4-ethoxy-1-(4-fluorophenyl)-2-oxo-1,2-dihydropyridine-3-carboxamide] | < 50 | ≤ 50 | ≤ 50 |
| CCOc1ccn(-c2ccc(F)cc2)c(=O)c1C(=O)Nc1ccc(Oc2ccnc3cc(OCCCN4CCS(=O)(=O)CC4)c4c(c23)OCCO4)c(F)c1 [Example 51, N-(4-((5-(3-(1,1-dioxidothiomorpholino)propoxy)-2,3-dihydro-[1,4]dioxino[2,3-f]quinolin-1 0-yl)oxy)-3-fluorophenyl)-4-ethoxy-1-(4-fluorophenyl)-2-oxo-1,2-dihydropyridine-3-carboxamide] | < 50 | ≤ 50 | ≤ 50 |
| CCOc1ccn(-c2ccc(F)cc2)c(=O)c1C(=O)Nc1ccc(Oc2ccnc3cc(OCCCN4CCCC4)c4c(c23)OCCO4)c(F)c1 [Example 52, N-(4-((5-(3-(pyrrolidin-1-yl)propoxy)-2,3-dihydro-[1,4]dioxino[2,3-f]quinolin-10-yl)oxy)-3-fluorophenyl)-4-ethoxy-1-(4-fluorophenyl)-2-oxo-1,2-dihydropyridine-3-carboxamide] | < 50 | ≤ 50 | ≤ 50 |
| CCOc1ccn(-c2ccc(F)cc2)c(=O)c1C(=O)Nc1ccc(Oc2ccnc3cc(OCCO)c4c(c23)OCCO4)c(F)c1 [Example 53, N-(4-((5-(2-hydroxyethoxy)-2,3-dihydro-[1,4]dioxino[2,3-f]quinolin-10-yl)oxy)-3-fluorophenyl)-4-ethoxy-1-(4-fluorophenyl)-2-oxo-1,2-dihydropyridine-3-carboxamide] | < 50 | ≤ 50 | ≤ 50 |
| CCOc1ccn(-c2ccc(F)cc2)c(=O)c1C(=O)Nc1ccc(Oc2ccnc3cc(OCCCO)c4c(c23)OCCO4)c(F)c1 [Example 54, N-(4-((5-(3-hydroxypropoxy)-2,3-dihydro-[1,4]dioxino[2,3-f]quinolin-10-yl)oxy)-3-fluorophenyl)-4-ethoxy-1-(4-fluorophenyl)-2-oxo-1,2-dihydropyridine-3-carboxamide] | < 50 | ≤ 50 | ≤ 50 |
| CCOc1ccn(-c2ccc(F)cc2)c(=O)c1C(=O)Nc1ccc(Oc2ccnc3cc(OCCCOC)c4c(c23)OCCO4)c(F)c1 [Example 55, N-(4-((5-(3-methoxypropoxy)-2,3-dihydro-[1,4]dioxino[2,3-f]quinolin-10-yl)oxy)-3-fluorophenyl)-4-ethoxy-1-(4-fluorophenyl)-2-oxo-1,2-dihydropyridine-3-carboxamide] | < 50 | 50 to 500 | ≤ 50 |
| CCOc1ccn(-c2ccc(F)cc2)c(=O)c1C(=O)Nc1ccc(Oc2ccnc3cc(OCC#N)c4c(c23)OCCO4)c(F)c1 [Example 56, N-(4-((5-(cyanomethoxy)-2,3-dihydro-[1,4]dioxino[2,3-f]quinolin-10-yl)oxy)-3-fluorophenyl)-4-ethoxy-1-(4-fluorophenyl)-2-oxo-1,2-dihydropyridine-3-carboxamide] | < 50 | 50 to 500 | ≤ 50 |
| CCOc1ccn(-c2ccc(F)cc2)c(=O)c1C(=O)Nc1ccc(Oc2ccnc3cc(OCCCC#N)c4c(c23)OCCO4)c(F)c1 [Example 57, N-(4-((5-(3-cyanopropoxy)-2,3-dihydro-[1,4]dioxino[2,3-f]quinolin-10-yl)oxy)-3-fluorophenyl)-4-ethoxy-1-(4-fluorophenyl)-2-oxo-1,2-dihydropyridine-3-carboxamide] | < 50 | ≤ 50 | ≤ 50 |
| CC(=O)N1CCN(CCCOc2cc3nccc(Oc4ccc(NC(=O)c5cn(C(C)C)c(=O)n(-c6ccc(F)cc6)c5=O)cc4F)c3c3c2OCCO3)CC1 [Example 75, N-(3-fluoro-4-((5-(3-(4-acetylpiperazin-1-yl)propoxy)-2,3-dihydro-[1,4]dioxino[2,3-f]quinolin-10-yl)oxy)phenyl)-3-(4-fluorophenyl)-1-isopropyl-2,4-dioxo-1,2,3,4-tetrahydropyrimidine-5-carboxamide] | < 50 |  | ≤ 50 |
| CC(C)n1cc(C(=O)Nc2ccc(Oc3ccnc4cc(OCCCO)c5c(c34)OCCO5)c(F)c2)c(=O)n(-c2ccc(F)cc2)c1=O [Example 79, N-(3-fluoro-4-((5-(3-hydroxypropoxy)-2,3-dihydro-[1,4]dioxino[2,3-f]quinolin-10-yl)oxy)phenyl)-3-(4-fluorophenyl)-1-isopropyl-2,4-dioxo-1,2,3,4-tetrahydropyrimidine-5-carboxamide] | < 50 |  | ≤ 50 |

From patent US12202835B2, “Substituted aromatic ring-linked dioxinoquinazolines and dioxinoquinolines as kinase inhibitors” (BEIJING SCITECH-MQ PHARMACEUTICALS LIMITED, priority 2018, dated 2025)
